One assay has as its target T1, TEL-CSF1R-BaF3 (Homo sapiens, UniProt P07333).
T1 construct: expressed in transfected cells; host or cells: mouse BaF3 cells (ATCC), retroviral transduction with MSCV-Puro vector, IL-3 withdrawn; the other entry of the earlier key: ETV6 (P41212, Transcription factor ETV6)
T1 sequence (P07333 582-910 limits assumed): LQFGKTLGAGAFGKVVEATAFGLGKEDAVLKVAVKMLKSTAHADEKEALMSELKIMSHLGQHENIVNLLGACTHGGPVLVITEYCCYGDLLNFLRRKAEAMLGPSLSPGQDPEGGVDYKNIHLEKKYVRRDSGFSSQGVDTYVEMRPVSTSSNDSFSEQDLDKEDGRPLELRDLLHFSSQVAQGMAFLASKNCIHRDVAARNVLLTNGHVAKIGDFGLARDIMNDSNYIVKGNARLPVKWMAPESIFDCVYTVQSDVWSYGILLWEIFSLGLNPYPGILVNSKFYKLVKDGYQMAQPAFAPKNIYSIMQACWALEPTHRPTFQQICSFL
The experiment in a line: Proliferation of TEL-CSF1R-BaF3 cells (CCK-8, 72 hours). The conditions noted are these: for GI50: 72 hours incubation, CCK-8. It counts as cell-based. The protocol:
(§1) The incubated cells were detected by CCK-8 (purchased from MedChem Express, China) cell viability detection kit (CCK-8 can be reduced by dehydrogenases in living cells to a highly water-soluble yellow formazan product, and the amount of the generated formazan product is proportional to the number of living cells). The number of living cells was quantified by a microplate reader, and the GI50 for each compound was calculated (the results are shown in Table 2).
The construction method of the TEL-CSF1R-BaF3 cell line (a cell line stably expressing CSF1R kinase) was as follows: the sequence of human CSF1R kinase region was amplified by PCR and inserted into the MSCV-Puro vector (Clontech) with an N-terminal TEL fragment, and stably transferred into mouse BaF3 cells (purchased from ATCC, USA) by a retroviral method, and IL-3 growth factor was removed, finally a cell line dependent on CSF1R transferred protein was obtained.

For a further assay, the system named is M-NSF-60. The experiment in a line: Proliferation of M-NSF-60 cells with M-CSF (CCK-8, 72 hours). It counts as cell-based, mouse. To be noted: for GI50: Mus musculus, read-out: M-NSF-60 (GI50/μM). The protocol:
as §1

[1] abbreviates: M-CSF 50 ng/ml in medium, 72 hours incubation, CCK-8.
[2] abbreviates: result in words, summary of Table 2.

The structures appear in SMILES notation. Where two headings read alike, the source gives them in different places.

With `COc1cc2nccc(Oc3ccc(NC(=O)Cc4ccc(Cl)c(C(F)(F)F)c4)cc3C)c2cc1OC` [Example 27, N-(3-methyl-4-((6,7-dimethoxyquinolin-4-yl)oxy)phenyl)-2-(4-chloro-3-(trifluoromethyl)phenyl)acetamide], the GI50 was found to be 0.003 µM at TEL-CSF1R-BaF3 and 0.041 µM in the assay with M-NSF-60 (setting [1]).
On to `COc1cccc(CC(=O)Nc2ccc(Oc3ncnc4cc(OC)c(OC)cc34)cc2)c1` [Comparative Example 4, N-(4-((6,7-dimethoxyquinazolin-4-yl)oxy)phenyl)-2-(3-methoxyphenyl)acetamide, reference compound], for which the GI50 on TEL-CSF1R-BaF3 is 0.17 µM; in the assay on M-NSF-60 (setting [1]), 0.55 µM. Further, the “inhibitory effect on the proliferation of TEL-CSF1R-BaF3” value at TEL-CSF1R-BaF3 (setting [2]) is “certain inhibitory activity”. In addition, the “inhibitory effect on the proliferation of M-NSF-60” value in the assay with M-NSF-60 (setting [2]) is recorded as “certain inhibitory activity”.
As to `COc1cc2nccc(Oc3ccc(NC(=O)Cc4ccccc4C(F)(F)F)cc3)c2cc1OC` [Example 40, N-(4-((6,7-dimethoxyquinolin-4-yl)oxy)phenyl)-2-(2-(trifluoromethyl)phenyl)acetamide], the GI50 at TEL-CSF1R-BaF3 was determined as 0.007 µM; in the assay with M-NSF-60 (setting [1]), 0.091 µM.
As to `COc1cc2nccc(Oc3ccc(NC(=O)Cc4ccc(F)cc4F)cc3)c2cc1OC` [Example 15, N-(4-((6,7-dimethoxyquinolin-4-yl)oxy)phenyl)-2-(2,4-difluorophenyl)acetamide], the GI50 at TEL-CSF1R-BaF3 is 0.003 µM; with M-NSF-60 (setting [1]) it was 0.051 µM.
For `COc1cc2nccc(Oc3ccc(NC(=O)Cc4ccc(Cl)c(C(F)(F)F)c4)c(Cl)c3)c2cc1OC` [Example 23, N-(2-chloro-4-((6,7-dimethoxyquinolin-4-yl)oxy)phenyl)-2-(4-chloro-3-(trifluoromethyl)phenyl)acetamide], the GI50 on TEL-CSF1R-BaF3 is 0.008 µM; in the assay on M-NSF-60 (setting [1]) it was 0.061 µM.
The matching figures for `COc1cc2nccc(Oc3ccc(NC(=O)Cc4ccccc4)cc3)c2cc1OC` [Example 3, N-(4-((6,7-dimethoxyquinolin-4-yl)oxy)phenyl)-2-phenylacetamide]: 0.012 µM and 0.1 µM.
Turning to `COc1cc2nccc(Oc3ccc(NC(=O)Cc4ccc(C)c(C(F)(F)F)c4)cc3)c2cc1OC` [Example 1, N-(4-((6,7-dimethoxyquinolin-4-yl)oxy)phenyl)-2-(4-methyl-3-(trifluoromethyl)phenyl)acetamide], the GI50 is 0.002 µM at TEL-CSF1R-BaF3 and 0.009 µM in the assay on M-NSF-60 (72 h).
For `COc1cc2nccc(Oc3ccc(NC(=O)Cc4cccc(C(F)(F)F)c4)cc3)c2cc1OC` [Example 8, N-(4-((6,7-dimethoxyquinolin-4-yl)oxy)phenyl)-2-(3-(trifluoromethyl)phenyl)acetamide], the GI50 came to 0.001 µM on TEL-CSF1R-BaF3 and 0.006 µM with M-NSF-60 (setting [1]).
As for `COc1cc2nccc(Oc3ccc(NC(=O)Cc4ccccc4)cn3)c2cc1OC` [Comparative Example 1, N-(6-((6,7-dimethoxyquinolin-4-yl)oxy)pyridin-3-yl)-2-phenylacetamide, reference compound], the GI50 on TEL-CSF1R-BaF3 and in the assay with M-NSF-60 (72 h) was more than 10 µM in each case.
For `COc1cc2nccc(Oc3ccc(NC(=O)Cc4ccc(C)c(F)c4)cc3)c2cc1OC` [Example 16, N-(4-((6,7-dimethoxyquinolin-4-yl)oxy)phenyl)-2-(3-fluoro-4-methylphenyl)acetamide], the figures for the GI50 on TEL-CSF1R-BaF3 and in the assay with M-NSF-60 (setting [1]) were 0.001 µM and 0.033 µM, respectively.
In the case of `COc1cc2nccc(Oc3ccc(NC(=O)Cc4cccc(C(F)(F)F)c4)c(Cl)c3)c2cc1OC` [Example 6, N-(2-chloro-4-((6,7-dimethoxyquinolin-4-yl)oxy)phenyl)-2-(3-(trifluoromethyl)phenyl)acetamide], the GI50 on TEL-CSF1R-BaF3 was 0.017 µM; in the assay with M-NSF-60 (setting [1]), 0.06 µM.
For `COc1cc2nccc(Oc3ccc(NC(=O)Cc4ccc(Cl)c(C(F)(F)F)c4)c(F)c3)c2cc1OC` [Example 24, N-(2-fluoro-4-((6,7-dimethoxyquinolin-4-yl)oxy)phenyl)-2-(4-chloro-3-(trifluoromethyl)phenyl)acetamide], the GI50 at TEL-CSF1R-BaF3 was 0.002 µM; in the assay on M-NSF-60 (setting [1]), 0.024 µM.
In the case of `COc1cc2nccc(Oc3ccc(C(=O)NCc4cccc(C(F)(F)F)c4)cc3)c2cc1OC` [Comparative Example 3, N-(3-(trifluoromethyl)benzyl)-4-((6,7-dimethoxyquinolin-4-yl)oxy)benzamide, reference compound], the GI50 at TEL-CSF1R-BaF3 worked out at 1.23 µM; with M-NSF-60 (setting [1]), 2.4 µM.
For `COc1cc2nccc(Oc3ccc(NC(=O)Cc4ccc(Cl)c(C(F)(F)F)c4)c(C)c3)c2cc1OC` [Example 26, N-(2-methyl-4-((6,7-dimethoxyquinolin-4-yl)oxy)phenyl)-2-(4-chloro-3-(trifluoromethyl)phenyl)acetamide] the same measures were 0.006 µM and 0.06 µM.
On to `COc1cc2nccc(Oc3ccc(NC(=O)Cc4c(F)cccc4F)cc3)c2cc1OC` [Example 14, N-(4-((6,7-dimethoxyquinolin-4-yl)oxy)phenyl)-2-(2,6-difluorophenyl)acetamide], for which the results for the GI50 at TEL-CSF1R-BaF3 and with M-NSF-60 (setting [1]) were 0.012 µM and 0.26 µM, respectively.
For `COc1ccc(CC(=O)Nc2ccc(Oc3ccnc4cc(OC)c(OC)cc34)cc2)cc1OC` [Example 10, N-(4-((6,7-dimethoxyquinolin-4-yl)oxy)phenyl)-2-(3,4-dimethoxyphenyl)acetamide] the same measures were 0.009 µM and 0.038 µM.
Take `COc1cc2nccc(Oc3ncc(NC(=O)Cc4cccc(C(F)(F)F)c4)cc3Cl)c2cc1OC` [Comparative Example 2, N-(5-chloro-6-((6,7-dimethoxyquinolin-4-yl)oxy)pyridin-3-yl)-2-(3-(trifluoromethyl)phenyl)acetamide, reference compound]: the GI50 on TEL-CSF1R-BaF3 was 2.54 µM; in the assay on M-NSF-60 (setting [1]), 7.84 µM.
As for `COc1cc2nccc(Oc3ccc(NC(=O)Cc4ccc(C(F)(F)F)cc4)cc3)c2cc1OC` [Example 9, N-(4-((6,7-dimethoxyquinolin-4-yl)oxy)phenyl)-2-(4-(trifluoromethyl)phenyl)acetamide], the GI50 on TEL-CSF1R-BaF3 was 0.002 µM; with M-NSF-60 (setting [1]), 0.007 µM.
For `COc1cc2nccc(Oc3ccc(NC(=O)Cc4ccc5c(c4)OCO5)cc3)c2cc1OC` [Example 18, N-(4-((6,7-dimethoxyquinolin-4-yl)oxy)phenyl)-2-(benzo[d][1,3]dioxol-5-yl)acetamide] the same measures were 0.002 µM and 0.062 µM.
`COc1cc2nccc(Oc3ccc(NC(=O)Cc4ccc(Cl)c(C(F)(F)F)c4)cc3F)c2cc1OC` [Example 25, N-(3-fluoro-4-((6,7-dimethoxyquinolin-4-yl)oxy)phenyl)-2-(4-chloro-3-(trifluoromethyl)phenyl)acetamide]: the GI50 on TEL-CSF1R-BaF3 came to 0.003 µM; in the assay with M-NSF-60 (setting [1]), 0.05 µM.
The matching figures for `COc1cc2nccc(Oc3ccc(NC(=O)Cc4ccc(Cl)c(C(F)(F)F)c4)cc3OC)c2cc1OC` [Example 37, N-(3-methoxy-4-((6,7-dimethoxyquinolin-4-yl)oxy)phenyl)-2-(4-chloro-3-(trifluoromethyl)phenyl)acetamide]: 0.004 µM and 0.075 µM.
For `COc1cc2nccc(Oc3ccc(NC(=O)Cc4cccc(F)c4)cc3)c2cc1OC` [Example 20, N-(4-((6,7-dimethoxyquinolin-4-yl)oxy)phenyl)-2-(3-fluorophenyl)acetamide] the same measures were 0.006 µM and 0.13 µM.
For `COc1cc2nccc(Oc3ccc(NC(=O)Cc4ccc5ccccc5c4)cc3)c2cc1OC` [Example 19, N-(4-((6,7-dimethoxyquinolin-4-yl)oxy)phenyl)-2-(naphth-2-yl)acetamide] the same measures were 0.0008 µM and 0.074 µM.
As for `COc1cc2nccc(Oc3ccc(NC(=O)Cc4ccc(C)c(C)c4)cc3)c2cc1OC` [Example 11, N-(4-((6.7-dimethoxyquinolin-4-yl)oxy)phenyl)2-(3,4-dimethylphenyl)acetamide], the results for the GI50 at TEL-CSF1R-BaF3 and with M-NSF-60 (setting [1]) were 0.001 µM and 0.005 µM, respectively.
`COc1cc2nccc(Oc3ccc(NC(=O)NCCCN4CCN(C)CC4)cc3)c2cc1OC` [Example 29, 1-(4-((6,7-dimethoxyquinolin-4-yl)oxy)phenyl)-3-(3-(4-methylpiperazin-1-yl)propyl)urea] yielded a GI50 on TEL-CSF1R-BaF3 of 0.011 µM.
Compound `COc1cc2nccc(Oc3ccc(NC(=O)NCCCN4CCOCC4)cc3)c2cc1OC` [Example 28, 1-(4-((6,7-dimethoxyquinolin-4-yl)oxy)phenyl)-3-(3-morpholinopropyl)urea] yielded a GI50 at TEL-CSF1R-BaF3 of 0.012 µM.
Consider `COc1cc2nccc(Oc3ccc(NC(=O)Cc4ccc(Cl)c(C(F)(F)F)c4)cc3C#N)c2cc1OC` [Example 39, N-(3-cyano-4-((6,7-dimethoxyquinolin-4-yl)oxy)phenyl)-2-(4-chloro-3-(trifluoromethyl)phenyl)acetamide], for which the GI50 was found to be 0.022 µM at TEL-CSF1R-BaF3 and 0.61 µM with M-NSF-60 (setting [1]).

For the origin of these results see patent US20250186452A1, “NOVEL USE OF QUINOLINE COMPOUND” (TARAPEUTICS SCIENCE INC., priority 2022, published 2025).
